Test results as given in ChEMBL document CHEMBL1649066, “An imidazopiperidine series of CCR5 antagonists for the treatment of HIV: the discovery of N-{(1S)-1-(3-fluorophenyl)-3-[(3-endo)-3-(5-isobutyryl-2-methyl-4,5,6,7-tetrahydro-1H-imidazo[4,5-c]pyridin-1-yl)-8-azabicyclo[3.2.1]oct-8-yl]propyl}acetamide (PF-232798)” (J Med Chem, 2011).
Activity calls are given as the source filed them. No cut-off for these calls is given here.

Key:
[1] = Intrinsic clearance in human liver microsomes assessed per mg of protein; format: ADME, Microsome
[2] = Apparent permeability from apical to basolateral side of human Caco2 cells; settings: Caco-2
[3] = Apparent permeability from basolateral to apical side of human Caco2 cells; settings: Caco-2
[4] = Octanol-buffer partition coefficient, log D of the compound
[5] = target: Voltage-gated inwardly rectifying potassium channel KCNH2 (Homo sapiens, UniProt Q12809)
Description: Displacement of [3H]-dofetilide from human ERG expressed in HEK293 cells

[6] = target: hERG (KCNH2) (Homo sapiens, UniProt Q12809); assay: in vitro; settings: HEK293 cells that express human ERG, probe [3H]-dofetilide
Description: Displacement of [3H]-dofetilide from human ERG expressed in HEK293 cells at 300 nM

[7] = Tmax in dog at 0.5 mg/kg, po; format: ADME, organism-based, Canis lupus familiaris; set-up: dose 0.5 mg/kg, route oral; settings: in vivo
[8] = tested on: Human immunodeficiency virus 1; assay: Antiviral activity against maraviroc-resistant HIV1 isolate CC185 at 100 times IC90 concentration; format: functional, organism-based
[9] = Clearance in rat at 1 mg/kg, iv and 2 mg/kg, po; format: ADME, organism-based; settings: in vivo
[10] = tested on: Human immunodeficiency virus; assay: Antiviral activity against HIV Ba-L infected in PBMC; format: functional; settings: Human immunodeficiency virus 1, Ba-L
[11] = Plasma protein binding in rat at 1 mg/kg, iv and 2 mg/kg, po; format: ADME, organism-based; settings: read-out: PPB (converted)
[12] = tested on: Human immunodeficiency virus 1; assay: Antiviral activity against maraviroc-resistant HIV1 isolate CC185 at IC90 concentration; format: functional, organism-based
[13] = Half life in rat at 1 mg/kg, iv and 2 mg/kg, po; format: ADME, organism-based; settings: in vivo
[14] = Intrinsic clearance in rat liver microsomes assessed per mg of protein; format: ADME, Microsome
[15] = Plasma protein binding in dog at 0.5 mg/kg, iv and 0.5 mg/kg, po; format: ADME, organism-based, Canis lupus familiaris; settings: read-out: PPB (converted)
[16] = Half life in dog at 0.5 mg/kg, iv and 0.5 mg/kg, po; format: ADME, organism-based, Canis lupus familiaris; settings: in vivo
[17] = Tmax in rat at 2 mg/kg, po; format: ADME, organism-based; set-up: dose 2 mg/kg, route oral; settings: in vivo
[18] = Volume of distribution in dog at 0.5 mg/kg, iv and 0.5 mg/kg, po; format: ADME, organism-based, Canis lupus familiaris; settings: in vivo
[19] = Oral bioavailability in rat at 2 mg/kg; format: ADME, organism-based; settings: in vivo
[20] = Intrinsic clearance in dog liver microsomes assessed per mg of protein; format: ADME, Canis lupus familiaris, Microsome
[21] = Clearance in dog at 0.5 mg/kg, iv and 0.5 mg/kg, po; format: ADME, organism-based, Canis lupus familiaris; settings: in vivo
[22] = Oral bioavailability in dog at 0.5 mg/kg; format: ADME, organism-based, Canis lupus familiaris; settings: in vivo
[23] = tested on: Canis familiaris; assay: Unbound clearance in dog at 0.5 mg/kg, iv and 0.5 mg/kg, po; format: ADME, organism-based, Canis lupus familiaris; settings: in vivo
[24] = tested on: Rattus norvegicus; assay: Unbound clearance in rat at 1 mg/kg, iv and 2 mg/kg, po; format: ADME, organism-based; settings: in vivo
[25] = tested on: Human immunodeficiency virus 1; assay: Antiviral activity against maraviroc-resistant HIV1 isolate CC185 at 10 times IC90 concentration; format: functional, organism-based
[26] = tested on: Rattus norvegicus; assay: fCmax in rat at 2 mg/kg, po; format: ADME, organism-based; set-up: dose 2 mg/kg, route oral; settings: in vivo
[27] = tested on: Rattus norvegicus; assay: Unbound clearance in rat at 2 mg/kg, iv and 2 mg/kg, po; format: ADME, organism-based; settings: in vivo
[28] = tested on: Canis familiaris; assay: fCmax in dog at 0.5 mg/kg, po; format: ADME, organism-based, Canis lupus familiaris; set-up: dose 0.5 mg/kg, route oral; settings: in vivo
[29] = Plasma protein binding in rat at 2 mg/kg, iv and 2 mg/kg, po; format: ADME, organism-based; settings: read-out: PPB (converted)
[30] = Half life in rat at 2 mg/kg, iv and 2 mg/kg, po; format: ADME, organism-based; settings: in vivo
[31] = Clearance in rat at 2 mg/kg, iv and 2 mg/kg, po; format: ADME, organism-based; settings: in vivo

Chain of Voltage-gated inwardly rectifying potassium channel KCNH2 (Q12809 whole entry): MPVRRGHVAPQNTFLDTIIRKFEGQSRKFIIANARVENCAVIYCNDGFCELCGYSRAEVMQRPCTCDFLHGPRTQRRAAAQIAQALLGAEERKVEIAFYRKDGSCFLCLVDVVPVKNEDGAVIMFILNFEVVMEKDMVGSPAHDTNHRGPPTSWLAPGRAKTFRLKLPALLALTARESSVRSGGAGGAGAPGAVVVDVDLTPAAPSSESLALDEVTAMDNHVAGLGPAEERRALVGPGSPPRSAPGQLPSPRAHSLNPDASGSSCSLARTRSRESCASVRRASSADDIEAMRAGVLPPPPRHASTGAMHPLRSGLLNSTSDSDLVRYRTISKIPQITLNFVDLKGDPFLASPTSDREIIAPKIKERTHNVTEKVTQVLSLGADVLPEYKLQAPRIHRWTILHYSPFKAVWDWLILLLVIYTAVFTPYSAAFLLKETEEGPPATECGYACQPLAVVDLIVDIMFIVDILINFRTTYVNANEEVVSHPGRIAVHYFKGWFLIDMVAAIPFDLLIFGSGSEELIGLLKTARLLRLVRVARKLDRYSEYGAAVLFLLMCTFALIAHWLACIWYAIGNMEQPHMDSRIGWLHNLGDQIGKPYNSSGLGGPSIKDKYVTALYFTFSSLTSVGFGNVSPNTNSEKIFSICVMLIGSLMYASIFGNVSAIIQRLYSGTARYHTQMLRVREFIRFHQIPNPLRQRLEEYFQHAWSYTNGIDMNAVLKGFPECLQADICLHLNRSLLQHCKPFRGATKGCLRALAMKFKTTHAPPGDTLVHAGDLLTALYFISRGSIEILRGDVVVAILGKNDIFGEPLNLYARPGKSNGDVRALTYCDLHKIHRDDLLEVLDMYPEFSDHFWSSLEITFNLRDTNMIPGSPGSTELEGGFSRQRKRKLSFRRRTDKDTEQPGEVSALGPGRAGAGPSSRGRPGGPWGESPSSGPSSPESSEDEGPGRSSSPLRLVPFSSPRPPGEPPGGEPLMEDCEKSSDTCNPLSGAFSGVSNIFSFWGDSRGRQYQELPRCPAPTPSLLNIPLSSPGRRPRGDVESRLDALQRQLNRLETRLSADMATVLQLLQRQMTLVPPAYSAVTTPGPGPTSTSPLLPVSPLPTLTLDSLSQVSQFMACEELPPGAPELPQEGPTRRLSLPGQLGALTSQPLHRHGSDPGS
Chain of hERG (KCNH2) (Q12809 whole entry): as above

Structure (SMILES)	microsomal CLint [1]	Papp A→B [2]	Papp B→A [3]	logD [4]	inhibition at 0.3 µM [6]	Activity [8]	Activity [12]	Activity [25]	also measured
CC(=O)N[C@@H](CCN1[C@@H]2CC[C@H]1C[C@@H](n1c(C)nc3c1CCN(C(C)=O)C3)C2)c1cccc(F)c1	< 8 µL/min/mg	< 1 ×10⁻⁶ cm/s	6 ×10⁻⁶ cm/s	1.4	–	–	–	–	–
Cc1nc(C(C)C)n([C@H]2C[C@H]3CC[C@@H](C2)N3CC[C@H](NC(=O)C2CCC(F)(F)CC2)c2ccccc2)n1	–	11 ×10⁻⁶ cm/s	26 ×10⁻⁶ cm/s	–	–	–	–	–	IC50 [5]: 4230 nM
CC(=O)N[C@@H](CCN1[C@@H]2CC[C@H]1C[C@@H](n1c(C)nc3c1CCN(c1ccncn1)C3)C2)c1cccc(F)c1	35 µL/min/mg	4 ×10⁻⁶ cm/s	15 ×10⁻⁶ cm/s	2.6	–	–	–	–	IC50 [5]: 10 nM
COC(=O)N[C@@H](CCN1[C@@H]2CC[C@H]1C[C@@H](n1c(C)nc3c1CN(C(C)=O)CC3)C2)c1ccccc1	42 µL/min/mg	4 ×10⁻⁶ cm/s	27 ×10⁻⁶ cm/s	1.4	57%	–	–	–	–
CCCC(=O)N1CCc2c(nc(C)n2[C@H]2C[C@H]3CC[C@@H](C2)N3CC[C@H](NC(C)=O)c2cccc(F)c2)C1	25 µL/min/mg	1 ×10⁻⁶ cm/s	26 ×10⁻⁶ cm/s	2.2	–	–	–	–	–
CC(=O)N[C@@H](CCN1[C@@H]2CC[C@H]1C[C@@H](n1c(C)nc3c1CN(C(=O)OC(C)C)CC3)C2)c1ccccc1	44 µL/min/mg	5 ×10⁻⁶ cm/s	28 ×10⁻⁶ cm/s	2.7	75%	–	–	–	–
CC(=O)N[C@@H](CCN1[C@@H]2CC[C@H]1C[C@@H](n1c(C)nc3ccccc31)C2)c1ccccc1	–	13 ×10⁻⁶ cm/s	35 ×10⁻⁶ cm/s	–	–	–	–	–	IC50 [5]: 1500 nM
COC(=O)N1CCc2nc(C)n([C@H]3C[C@H]4CC[C@@H](C3)N4CC[C@H](NC(C)=O)c3cccc(F)c3)c2C1	19 µL/min/mg	–	–	–	–	Active	Active	Active	Tmax [7]: 0.25 h; clearance [9]: 46 mL/min/kg; IC90 [10]: 1.6 nM; fraction unbound [11]: 0.29; half-life [13]: 1.7 h; microsomal CLint [14]: 15 µL/min/mg; fraction unbound [15]: 0.38; half-life [16]: 3.8 h; Tmax [17]: 2 h; Vd [18]: 11.8 L/kg; bioavailability [19]: 8%; microsomal CLint [20]: 32 µL/min/mg; clearance [21]: 36 mL/min/kg; bioavailability [22]: 42%; CL [23]: 93 mL/min/kg; CL [24]: 518 mL/min/kg
CC(=O)N[C@@H](CCN1[C@@H]2CC[C@H]1C[C@@H](n1c(C)nc3c1CN(C(=O)C(C)C)CC3)C2)c1ccccc1	42 µL/min/mg	< 1 ×10⁻⁶ cm/s	20 ×10⁻⁶ cm/s	1.6	0%	–	–	–	–
CC(=O)N1CC(C(=O)N[C@@H](CCN2[C@@H]3CC[C@H]2C[C@@H](n2c(C)nc4ccccc42)C3)c2ccccc2)C1	–	–	–	–	–	Active	Active	Active	–
Cc1nnc(C(C)C)n1[C@H]1C[C@H]2CC[C@@H](C1)N2CC[C@H](NC(=O)C1CCC(F)(F)CC1)c1ccccc1 [MARAVIROC]	–	–	–	–	–	–	–	–	IC90 [10]: 3.2 nM
Cc1nc2ccccc2n1[C@H]1C[C@H]2CC[C@@H](C1)N2CC[C@H](NC(=O)C1CCOCC1)c1ccccc1	–	–	–	–	–	Active	Active	Active	–
CC(=O)N[C@@H](CCN1[C@@H]2CC[C@H]1C[C@@H](n1c(C)nc3c1CCN(C(=O)C(C)(C)C)C3)C2)c1cccc(F)c1	35 µL/min/mg	1 ×10⁻⁶ cm/s	24 ×10⁻⁶ cm/s	2.8	–	–	–	–	–
COC(=O)N1CCc2c(nc(C)n2[C@H]2C[C@H]3CC[C@@H](C2)N3CC[C@H](NC(C)=O)c2cccc(F)c2)C1	< 8 µL/min/mg	3 ×10⁻⁶ cm/s	11 ×10⁻⁶ cm/s	1.9	–	Active	Active	Active	Cmax_unbound [26]: 208 nM; CL [27]: 253 mL/min/kg; Tmax [7]: 0.5 h; IC90 [10]: 0.8 nM; microsomal CLint [14]: < 6 µL/min/mg; fraction unbound [15]: 0.27; Cmax_unbound [28]: 9 nM; half-life [16]: 3.3 h; Tmax [17]: 2 h; Vd [18]: 9.9 L/kg; bioavailability [19]: 20%; fraction unbound [29]: 0.32; half-life [30]: 2.3 h; microsomal CLint [20]: < 9 µL/min/mg; clearance [21]: 36 mL/min/kg; IC50 [5]: 2000 nM; clearance [31]: 91 mL/min/kg; bioavailability [22]: 50%; CL [23]: 150 mL/min/kg
CC(=O)N[C@@H](CCN1[C@@H]2CC[C@H]1C[C@@H](n1c(C)nc3c1CN(S(C)(=O)=O)CC3)C2)c1ccccc1	24 µL/min/mg	–	–	0.9	10%	–	–	–	–
Cc1nnc(C2CC2)n1[C@H]1C[C@H]2CC[C@@H](C1)N2CC[C@H](NC(=O)C1CCC(F)(F)CC1)c1ccccc1	–	–	–	–	–	inactive	inactive	inactive	–
COC(=O)N1CCc2nc(C)n([C@H]3C[C@H]4CC[C@@H](C3)N4CC[C@H](NC(C)=O)c3ccccc3)c2C1	18 µL/min/mg	3 ×10⁻⁶ cm/s	16 ×10⁻⁶ cm/s	1.5	20%	–	–	–	–
CC(=O)N[C@@H](CCN1[C@@H]2CC[C@H]1C[C@@H](n1c(C)nc3c1CN(C)CC3)C2)c1ccccc1	< 7 µL/min/mg	< 1 ×10⁻⁶ cm/s	9 ×10⁻⁶ cm/s	0.4	0%	–	–	–	–
CC(=O)N[C@@H](CCN1[C@@H]2CC[C@H]1C[C@@H](n1c(C)nc3c1CN(C(C)C)CC3)C2)c1ccccc1	46 µL/min/mg	–	–	0.8	–	–	–	–	–
COC(=O)N[C@@H](CCN1[C@@H]2CC[C@H]1C[C@@H](n1c(C)nc3c1CN(C(=O)OC)CC3)C2)c1cccc(F)c1	92 µL/min/mg	17 ×10⁻⁶ cm/s	17 ×10⁻⁶ cm/s	2.6	69%	–	–	–	–
COC(=O)N[C@@H](CCN1[C@@H]2CC[C@H]1C[C@@H](n1c(C)nc3c1CN(C(C)=O)CC3)C2)c1cccc(F)c1	24 µL/min/mg	6 ×10⁻⁶ cm/s	23 ×10⁻⁶ cm/s	1.7	28%	–	–	–	–
CC(=O)N[C@@H](CCN1[C@@H]2CC[C@H]1C[C@@H](n1c(C)nc3c1CN(C(C)=O)CC3)C2)c1ccccc1	< 7 µL/min/mg	< 1 ×10⁻⁶ cm/s	5 ×10⁻⁶ cm/s	0.6	0%	–	–	–	–
CC(=O)N[C@@H](CCN1[C@@H]2CC[C@H]1C[C@@H](n1c(C)nc3c1CCN(C(=O)C(C)C)C3)C2)c1cccc(F)c1 [PF-232798]	13 µL/min/mg	2 ×10⁻⁶ cm/s	8 ×10⁻⁶ cm/s	2	–	Active	Active	Active	Tmax [7]: 1 h; clearance [9]: 201 mL/min/kg; IC90 [10]: 2 nM; fraction unbound [11]: 0.38; half-life [13]: 1.4 h; microsomal CLint [14]: < 6 µL/min/mg; fraction unbound [15]: 0.53; half-life [16]: 3.4 h; Vd [18]: 10.5 L/kg; bioavailability [19]: < 5%; microsomal CLint [20]: < 9 µL/min/mg; clearance [21]: 36 mL/min/kg; IC50 [5]: 12000 nM; bioavailability [22]: 31%; CL [23]: 63 mL/min/kg; CL [24]: 526 mL/min/kg
CCC(=O)N1CCc2nc(C)n([C@H]3C[C@H]4CC[C@@H](C3)N4CC[C@H](NC(C)=O)c3ccccc3)c2C1	< 7 µL/min/mg	< 1 ×10⁻⁶ cm/s	17 ×10⁻⁶ cm/s	1.2	13%	–	–	–	–
CCCCN1C(=O)[C@@H]([C@H](O)C2CCCCC2)NC(=O)C12CCN(Cc1ccc(Oc3ccc(C(=O)O)cc3)cc1)CC2	–	–	–	–	–	Active	Active	Active	–
COC[C@@H](c1ccc(C(F)(F)F)cc1)N1CCN(C2(C)CCN(C(=O)c3c(C)ncnc3C)CC2)C[C@@H]1C	–	–	–	–	–	Active	Active	Active	–
CCC(=O)N1CCc2c(nc(C)n2[C@H]2C[C@H]3CC[C@@H](C2)N3CC[C@H](NC(C)=O)c2cccc(F)c2)C1	11 µL/min/mg	2 ×10⁻⁶ cm/s	13 ×10⁻⁶ cm/s	1.7	–	Active	Active	Active	IC50 [5]: 5000 nM
CC(=O)N[C@@H](CCN1[C@@H]2CC[C@H]1C[C@@H](n1c(C)nc3c1CCN(c1cnccn1)C3)C2)c1cccc(F)c1	183 µL/min/mg	–	–	3	–	–	–	–	IC50 [5]: 1000 nM
Cc1nnc(C(C)C)n1[C@H]1C[C@H]2CC[C@@H](C1)N2CC[C@H](NC(=O)C1CCC(F)(F)CC1)c1cccc(F)c1	–	–	–	–	–	inactive	inactive	inactive	–
